Assay results taken from the NIST ThermoML archive (doi:10.1016/j.jct.2015.12.027).

Tests used:
[1] = refractive index (Na D-line) (dimensionless); xn = mol fraction of the nth substance listed; conditions: 81.5 kPa, Liquid, Standard Abbe refractometry
[2] = xn = mol fraction of the nth substance listed; conditions: 81.5 kPa, Liquid, Vibrating tube method

ClCCCl [1,2-dichloroethane] + c1ccccc1
Conditions | mass density, 293.15 K [kg/m3] | mass density, 303.15 K [kg/m3] | mass density, 313.15 K [kg/m3] | mass density, 323.15 K [kg/m3] | mass density, 333.15 K [kg/m3] | refractive index, 293.15 K | refractive index, 303.15 K | refractive index, 313.15 K | refractive index, 323.15 K | refractive index, 333.15 K
[1], x1 = 0.1002 | – | – | – | – | – | 1.49506 | 1.48919 | 1.48273 | 1.477 | 1.47091
[1], x1 = 0.207 | – | – | – | – | – | 1.48849 | 1.48273 | 1.47644 | 1.4708 | 1.46486
[1], x1 = 0.3043 | – | – | – | – | – | 1.48263 | 1.47694 | 1.47079 | 1.46522 | 1.45939
[1], x1 = 0.4032 | – | – | – | – | – | 1.47684 | 1.47123 | 1.46522 | 1.45971 | 1.45398
[1], x1 = 0.5005 | – | – | – | – | – | 1.47135 | 1.46581 | 1.45994 | 1.45449 | 1.44884
[1], x1 = 0.5975 | – | – | – | – | – | 1.46605 | 1.46058 | 1.45484 | 1.44943 | 1.44387
[1], x1 = 0.7235 | – | – | – | – | – | 1.45935 | 1.45396 | 1.44838 | 1.44302 | 1.43756
[1], x1 = 0.8005 | – | – | – | – | – | 1.45531 | 1.44995 | 1.44445 | 1.43912 | 1.43372
[1], x1 = 0.8918 | – | – | – | – | – | 1.4505 | 1.44519 | 1.43979 | 1.43449 | 1.42916
[1], x1 = 1 | – | – | – | – | – | 1.44472 | 1.43948 | 1.43423 | 1.42897 | 1.42373
[2], x1 = 0.1002 | 911.76 | 900.68 | 889.51 | 878.27 | 866.86 | – | – | – | – | –
[2], x1 = 0.207 | 947.74 | 936.23 | 924.62 | 912.92 | 901.08 | – | – | – | – | –
[2], x1 = 0.3043 | 981.38 | 969.5 | 957.49 | 945.42 | 933.17 | – | – | – | – | –
[2], x1 = 0.4032 | 1016.56 | 1004.31 | 991.92 | 979.41 | 966.77 | – | – | – | – | –
[2], x1 = 0.5005 | 1052.14 | 1039.52 | 1026.72 | 1013.82 | 1000.75 | – | – | – | – | –
[2], x1 = 0.5975 | 1088.72 | 1075.72 | 1062.52 | 1049.18 | 1035.66 | – | – | – | – | –
[2], x1 = 0.7235 | 1137.85 | 1124.32 | 1110.59 | 1096.67 | 1082.64 | – | – | – | – | –
[2], x1 = 0.8005 | 1168.91 | 1155.04 | 1140.95 | 1126.76 | 1112.37 | – | – | – | – | –
[2], x1 = 0.8918 | 1206.83 | 1192.59 | 1178.02 | 1163.49 | 1148.78 | – | – | – | – | –
[2], x1 = 1 | 1252.82 | 1238.27 | 1223.53 | 1208.61 | 1193.61 | – | – | – | – | –
